Tests used:
Assay in all cases: KiNativ profiling in human PBMCs
Assay type in all cases: binding
IRAK4 = system: T1, IRAK4
T1 construct: purchased ActivX Technologies (KiNativ)
Procedure: (§1) Compounds were shipped to ActivX Technologies (San Diego, US) where LRRK2 target engagement and broad kinase profiling was performed using KiNativ™ procedures. Live cell treatment of human peripheral blood mononuclear cells (PBMCs) at two compound concentrations (1 µM and 0.1 µM) were used to evaluate and compare in vitro target engagement and kinase selectivity, respectively (see Supplementary File 1).

ILK = system: T2, ILK
T2 construct: purchased ActivX Technologies (KiNativ)
Procedure: as §1

MAP2K6 = system: T3, MAP2K6
T3 construct: purchased ActivX Technologies (KiNativ)
Procedure: as §1

PI4KB = system: T4, PI4KB; details: ATP
T4 construct: purchased ActivX Technologies (KiNativ)
Procedure: as §1

NEK1 = system: T5, NEK1; details: Lys2
T5 construct: purchased ActivX Technologies (KiNativ)
Procedure: as §1

MAP3K2 = system: T6, MAP3K2; details: Lys1
T6 construct: purchased ActivX Technologies (KiNativ)
Procedure: as §1

YANK3 = system: T7, YANK3; details: Lys2
T7 construct: purchased ActivX Technologies (KiNativ)
Procedure: as §1

PLK1 = system: T8, PLK1; details: Lys1
T8 construct: purchased ActivX Technologies (KiNativ)
Procedure: as §1

MAST3 = system: T9, MAST3; details: Lys2
T9 construct: purchased ActivX Technologies (KiNativ)
Procedure: as §1

CDK5 = system: T10, CDK5
T10 construct: purchased ActivX Technologies (KiNativ)
Procedure: as §1

CDK7 = system: T11, CDK7
T11 construct: purchased ActivX Technologies (KiNativ)
Procedure: as §1

CaMKK2 = system: T12, CaMKK2; details: Lys2
T12 construct: purchased ActivX Technologies (KiNativ)
Procedure: as §1

Wnk1,Wnk2,Wnk3 = details: Lys2
Procedure: as §1

eEF2K = system: T13, eEF2K; details: ATP
T13 construct: purchased ActivX Technologies (KiNativ)
Procedure: as §1

PITSLRE = system: T14, PITSLRE; details: Lys2
T14 construct: purchased ActivX Technologies (KiNativ)
Procedure: as §1

PKN1 = system: T15, PKN1; details: Lys1
T15 construct: purchased ActivX Technologies (KiNativ)
Procedure: as §1

smMLCK = system: T16, smMLCK
T16 construct: purchased ActivX Technologies (KiNativ)
Procedure: as §1

CaMK2d = system: T17, CaMK2d; details: Lys1
T17 construct: purchased ActivX Technologies (KiNativ)
Procedure: as §1

CDC2 = system: T18, CDC2; details: Lys2
T18 construct: purchased ActivX Technologies (KiNativ)
Procedure: as §1

IRAK1 = system: T19, IRAK1; details: Lys2
T19 construct: purchased ActivX Technologies (KiNativ)
Procedure: as §1

RSK1,RSK2,RSK3 domain1 = details: Lys2
Procedure: as §1

HPK1 = system: T20, HPK1
T20 construct: purchased ActivX Technologies (KiNativ)
Procedure: as §1

NuaK2 = system: T21, NuaK2; details: Lys1
T21 construct: purchased ActivX Technologies (KiNativ)
Procedure: as §1

MAP2K3 = system: T22, MAP2K3
T22 construct: purchased ActivX Technologies (KiNativ)
Procedure: as §1

MSK1 domain1 = system: T23, MSK1 domain1; details: Lys2
T23 construct: MSK1 domain1; purchased ActivX Technologies (KiNativ)
Procedure: as §1

[1] = system: ZC1/HGK,ZC2/TNIK,ZC3/MINK; details: Lys2
Procedure: as §1

MST4,YSK1 = details: Lys2
Procedure: as §1

GPRK6 = system: T24, GPRK6; details: Lys2
T24 construct: purchased ActivX Technologies (KiNativ)
Procedure: as §1

MST3 = system: T25, MST3; details: Lys2
T25 construct: purchased ActivX Technologies (KiNativ)
Procedure: as §1

CaMK1d = system: T26, CaMK1d
T26 construct: purchased ActivX Technologies (KiNativ)
Procedure: as §1

CK1g2 = system: T27, CK1g2; details: Lys2
T27 construct: purchased ActivX Technologies (KiNativ)
Procedure: as §1

NEK4 = system: T28, NEK4; details: Lys2
T28 construct: purchased ActivX Technologies (KiNativ)
Procedure: as §1

LCK = system: T29, LCK; details: 1µM; Activation Loop
T29 construct: purchased ActivX Technologies (KiNativ)
Procedure: as §1

IKKe,TBK1 = details: Lys2
Procedure: as §1

RSK2 domain1 = system: T30, RSK2 domain1
T30 construct: RSK2 domain1; purchased ActivX Technologies (KiNativ)
Procedure: as §1

SMILES: Cc1cccc(-c2cc(Nc3ccn(C)n3)nc3[nH]cc(C#N)c23)c1 [Lu AF58786]
- Inhibition (IRAK4; 0.1µM, Lys1): 16.2%
- Inhibition (IRAK4; 0.1µM, Lys2): 7.0%
- Inhibition (IRAK4; 1µM, Lys1): 13.3%
- Inhibition (IRAK4; 1µM, Lys2): 8.9%
- Inhibition (ILK; 0.1µM, Lys1): 2.8%
- Inhibition (ILK; 0.1µM, Protein Kinase Domain): -27.2%
- Inhibition (ILK; 1µM, Lys1): 5.7%
- Inhibition (ILK; 1µM, Protein Kinase Domain): -1.7%
- Inhibition (MAP2K6; 0.1µM, Lys1): 2.0%
- Inhibition (MAP2K6; 0.1µM, Lys2): 5.6%
- Inhibition (MAP2K6; 1µM, Lys1): 2.8%
- Inhibition (MAP2K6; 1µM, Lys2): -7.5%
- Inhibition (PI4KB; 0.1µM): 15.3%
- Inhibition (PI4KB; 1µM): 6.2%
- Inhibition (NEK1; 0.1µM): -2.3%
- Inhibition (NEK1; 1µM): -14.0%
- Inhibition (MAP3K2; 0.1µM): 26.8%
- Inhibition (MAP3K2; 1µM): 18.5%
- Inhibition (YANK3; 0.1µM): 11.1%
- Inhibition (YANK3; 1µM): -8.5%
- Inhibition (PLK1; 0.1µM): -7.7%
- Inhibition (PLK1; 1µM): -19.7%
- Inhibition (MAST3; 0.1µM): 11.5%
- Inhibition (MAST3; 1µM): 0.2%
- Inhibition (CDK5; 0.1µM, Lys1): 15.8%
- Inhibition (CDK5; 0.1µM, Lys2): 2.3%
- Inhibition (CDK5; 1µM, Lys1): 17.6%
- Inhibition (CDK5; 1µM, Lys2): 2.5%
- Inhibition (CDK7; 0.1µM, Lys1): 3.7%
- Inhibition (CDK7; 0.1µM, Lys2): 9.8%
- Inhibition (CDK7; 1µM, Lys1): -0.256%
- Inhibition (CDK7; 1µM, Lys2): 18.0%
- Inhibition (CaMKK2; 0.1µM): 13.8%
- Inhibition (CaMKK2; 1µM): 1.3%
- Inhibition (Wnk1,Wnk2,Wnk3; 0.1µM): 10.5%
- Inhibition (Wnk1,Wnk2,Wnk3; 1µM): -5.4%
- Inhibition (eEF2K; 0.1µM): 12.2%
- Inhibition (eEF2K; 1µM): 6.3%
- Inhibition (PITSLRE; 0.1µM): 2.7%
- Inhibition (PITSLRE; 1µM): -9.8%
- Inhibition (PKN1; 0.1µM): 18.4%
- Inhibition (PKN1; 1µM): 13.6%
- Inhibition (smMLCK; 0.1µM, Lys1): 1.6%
- Inhibition (smMLCK; 0.1µM, Lys2): 3.0%
- Inhibition (smMLCK; 1µM, Lys1): 18.7%
- Inhibition (smMLCK; 1µM, Lys2): -2.1%
- Inhibition (CaMK2d; 0.1µM): 3.9%
- Inhibition (CaMK2d; 1µM): -3.2%
- Inhibition (CDC2; 0.1 µM, DLKPQNLLIDDK): -19.4%
- Inhibition (CDC2; 0.1 µM, DLKPQNLLIDDKGTIK): 5.9%
- Inhibition (CDC2; 1 µM, DLKPQNLLIDDK): -27.3%
- Inhibition (CDC2; 1 µM, DLKPQNLLIDDKGTIK): 6.8%
- Inhibition (IRAK1; 0.1µM): 3.0%
- Inhibition (IRAK1; 1µM): 1.7%
- Inhibition (RSK1,RSK2,RSK3 domain1; 0.1µM): 14.1%
- Inhibition (RSK1,RSK2,RSK3 domain1; 1µM): 29.7%
- Inhibition (HPK1; 0.1µM, Lys2): 13.0%
- Inhibition (HPK1; 1µM, Lys1): 8.1%
- Inhibition (HPK1; 1µM, Lys2): 21.1%
- Inhibition (NuaK2; 0.1µM): 20.0%
- Inhibition (NuaK2; 1µM): 38.2%
- Inhibition (MAP2K3; 0.1µM, Lys1): -31.6%
- Inhibition (MAP2K3; 0.1µM, Lys2): -1.9%
- Inhibition (MAP2K3; 1µM, Lys1): -37.3%
- Inhibition (MAP2K3; 1µM, Lys2): 0.27%
- Inhibition (MSK1 domain1; 0.1µM): 15.8%
- Inhibition (MSK1 domain1; 1µM): 1.9%
- Inhibition ([1]; 0.1µM): 6.6%
- Inhibition ([1]; 1µM): -3.7%
- Inhibition (MST4,YSK1; 0.1µM): 22.5%
- Inhibition (MST4,YSK1; 1µM): 4.6%
- Inhibition (GPRK6; 0.1µM): -65.0%
- Inhibition (GPRK6; 1µM): -34.1%
- Inhibition (MST3; 0.1µM): 12.8%
- Inhibition (MST3; 1µM): 1.2%
- Inhibition (CaMK1d; 0.1µM, Lys1): 11.8%
- Inhibition (CaMK1d; 0.1µM, Lys2): -11.6%
- Inhibition (CaMK1d; 1µM, Lys1): -4.5%
- Inhibition (CaMK1d; 1µM, Lys2): -6.3%
- Inhibition (CK1g2; 0.1µM): 5.2%
- Inhibition (CK1g2; 1µM): -0.12%
- Inhibition (NEK4; 0.1µM): -32.0%
- Inhibition (NEK4; 1µM): -14.9%
- Inhibition (LCK): 5.7%
- Inhibition (IKKe,TBK1; 0.1µM): -16.4%
- Inhibition (IKKe,TBK1; 1µM): -9.8%
- Inhibition (RSK2 domain1; 0.1µM, ATP Loop): 26.3%
- Inhibition (RSK2 domain1; 0.1µM, Activation Loop): 16.6%
- Inhibition (RSK2 domain1; 0.1µM, Lys2): 1.6%
- Inhibition (RSK2 domain1; 1µM, ATP Loop): 13.9%
- Inhibition (RSK2 domain1; 1µM, Activation Loop): 32.7%
- Inhibition (RSK2 domain1; 1µM, Lys2): 27.1%
